Values after ≈ are worked out from the molar mass of the structure shown. Read-outs that look alike come from different tables or passages of the source.
Assays:
herpes simplex viruses = conditions: betulin mixed with acyclovir; Gong et al. 2004; cited from earlier work
[1] = Solubility of betulin in single and mixed polar organic solvents; assay type: physicochemical; conditions: organic solvent or mixture
Source text: This recrystallization step is an intermediate step for obtaining ultrapure betulin of 99.5% or more and highly-pure betulinic acid of 95% or more. The outer bark and inner bark of a birch tree generally includes betulin, betulinic acid, lupeol (CAS 545-47-1) and polar pigment components. […] When the outer bark of a birch tree is extracted using such a polar organic solvent, a crude extract including 70 ∼ 83% of betulin, 4 ∼ 8% of betulinic acid and residual polar pigment components can be obtained. In this case, in order to use betulin and betulinic acid as intermediate materials for fine chemical products or medical supplies or additives for enhancing antiviral activity, the crude extract is recrystallized.
Preferably, a mixture of organic solvents having a density range of 0.91 g/mL ∼ 1.37 g/mL may be used. […] The crude extract is recrystallized using such a mixture of organic solvents to obtain a high-quality crystallized product (including a secondary crystallized product) including 94 ∼ 96.5% of betulin, 3 ∼ 4% of betulinic acid and residual polar pigment components, and then ultrapure betulin is produced using a 4-bed eluent swing continuous adsorption unit.

[2] = system: human prostatic cancer cells (LNCaP, PC-3, and DU-145) and fibroblast cells; conditions: PC-3, DU-145 and fibroblast cells, US 2006/0154903; cited from earlier work

For C=C(C)[C@@H]1CC[C@]2(CO)CC[C@]3(C)[C@H](CC[C@@H]4[C@@]5(C)CC[C@H](O)C(C)(C)[C@@H]5CC[C@]43C)[C@@H]12 [betulin], the “antiviral effects to herpes simplex viruses” value (herpes simplex viruses) is given as “antiviral effects were provided”, the solubility ([1]; chloroform, at 60.5°C, read-out: solubility of betulin in chloroform) is given as at most 40.7 mg/mL and the solubility ([1]; chloroform:ethanol 18:82 v/v, density = 0.91 g/mL, at 60.5°C, read-out: solubility of betulin in the mixed solvent of chloroform and ethanol) is given as 38.6 mg/mL (≈ 87.2 mM). For the same compound, the solubility ([1]; chloroform:ethanol 57:43 v/v, density = 1.19 g/mL, at 60.5°C, read-out: solubility of betulin in the mixed solvent of chloroform and ethanol) was 140 mg/mL (≈ 316 mM), the solubility ([1]; chloroform:ethanol 82:18 v/v, density = 1.37 g/mL, at 60.5°C, read-out: solubility of betulin in the mixed solvent of chloroform and ethanol) was 163 mg/mL (≈ 368 mM) and the solubility ([1]; ethanol, at 77.1°C, read-out: solubility of betulin in ethanol) was at most 23 mg/mL. For the same compound, the solubility ([1]; ethanol, at 78°C, read-out: solubility of betulin in ethanol) was at most 18.5 mg/mL, the solubility ([1]; ethyl acetate, at 60.5°C, read-out: solubility of betulin in ethyl acetate) was at most 40.7 mg/mL and the solubility ([1]; ethyl acetate, at 77.1°C, read-out: solubility of betulin in ethyl acetate) was at most 23 mg/mL. The solubility ([1]; methanol, at 64.7°C, read-out: solubility of betulin in methanol) was at most 6.73 mg/mL.
In the case of C=C(C)[C@@H]1CC[C@]2(C(=O)O)CC[C@]3(C)[C@H](CC[C@@H]4[C@@]5(C)CCC(=O)C(C)(C)[C@@H]5CC[C@]43C)[C@@H]12 [butulonic acid], the “inhibiting the growth of human prostatic cancer cells and fibroblast cells” value [2] is listed as “has an effect on inhibiting the growth”.

Source: patent EP2514430B1, “METHOD AND APPARATUS FOR SIMULTANEOUSLY MANUFACTURING ULTRA PURE BETULIN AND HIGHLY PURE BETULINIC ACID FROM BIRCH BARK” (Korea Institute of Energy Research, priority 2009, dated 2011)
